Here are results for two compounds from patent US20090016959A1, “Delivery of antibodies to the central nervous system” (priority 2005, published 2009).

Residues, ends and D or L forms follow the SMILES beside them.

Series [1] relates to bovine brain capillary endothelial cells. As to the kind of experiment: In vitro BBB model, second screening level with iodinated peptides (cpm ratios). Type of series: in vitro ADME. The protocol: (§1) This BBCEC medium was changed three times a week.
Two iodo-beads were used for each protein.
Results were expressed as cpm ratios. […] The ratio between the number of [^125I]-peptide found in the bottom chamber of filters covered with or without endothelial cells was also calculated (+cells/−cells).

Series [2] shares this test system. As to the kind of experiment: In vitro BBB model, first level of selection: peptides in lower chamber visualized by Coomassie blue. Type of series: in vitro ADME. The note with it: first level of screening; 90 minutes at 37° C.
From the text: as §1
The medium was changed twice a week.

The subject of series [3] is in vitro model of the blood brain barrier. As to the kind of experiment: Transcytosis capacity across the in vitro BBB model (Pe). Type of series: in vitro ADME, bovine. The protocol:
as §1
Transcytosis capacity of Aprotinin-Paclitaxel conjugate was determined and is reported below in Table 5.

Regarding `C[C@@H](O)[C@H](NC(=O)[C@H](CCCCN)NC(=O)[C@H](Cc1ccccc1)NC(=O)[C@H](CC(N)=O)NC(=O)[C@H](CC(N)=O)NC(=O)[C@H](CCCNC(=N)N)NC(=O)[C@H](CCCCN)NC(=O)CNC(=O)[C@H](CCCNC(=N)N)NC(=O)[C@H](CS)NC(=O)[C@H](CS)NC(=O)CNC(=O)[C@H](Cc1ccc(O)cc1)NC(=O)[C@H](Cc1ccccc1)NC(=O)[C@H](Cc1ccccc1)NC(=O)[C@@H](NC(=O)[C@@H](N)CS)[C@@H](C)O)C(=O)N[C@@H](CCC(=O)O)C(=O)N[C@@H](CCC(=O)O)C(=O)N[C@@H](Cc1ccc(O)cc1)C(=O)O` [Peptide 71] (H-CTFFYGCCRGKRNNFKTEEY-OH; N-terminus and C-terminus assumed), the “Ratios −cells/initial” value in series [1] is recorded as 0.072. Also, in series [1] ([125I]-peptide in bottom chamber of filters with versus without endothelial cells), the “Ratios +cells/−cells” value is on record as 0.37. Besides, in series [1] ([125I]-peptide, cpm in bottom chamber / total cpm added, filter covered with endothelial cells, 90 minutes at 37° C), the “Ratios +cells/initial” value worked out at 0.027. In addition, the “peptides detected in the lower side of the chambers by Coomassie blue staining” value in series [2] is recorded as “detected in the lower side of the chambers”.

Consider aprotinin, for which the “Transcytosis (Pe 10^−3 cm/min)” value in series [3] is on record as 0.2 10^−3 cm/min.
